What was measured:
PRMT5 [1] = target: T1, PRMT5 (Homo sapiens, UniProt O14744); assay: PRMT5 IC50 assay in the presence of SAM as cofactor; format: biochemical
T1 construct: purchased Viva (custom protein)
Method in brief: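 Potency against PRMT5 is compared across cofactor states, where IC50 equals Ki×1.5 with SAM present and Ki×13.5 with MTA present.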

PRMT5 [2] = target: T1, PRMT5; assay: PRMT5 IC50 assay with no cofactor; format: biochemical
Method in brief: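 Cofactor-free, SAM and MTA formats; IC50 μM; Ki = IC50/1.5 for SAM, IC50/13.5 for MTA.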

PRMT5 [3] = target: T1, PRMT5; assay: PRMT5 IC50 assay in the presence of MTA as cofactor; format: biochemical; conditions: for IC50: PRMT5, MTA as cofactor
Method in brief: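 IC50 against PRMT5 determined with SAM as cofactor, with no cofactor, and with MTA as cofactor. Ki derived as IC50/1.5 for the SAM assay and IC50/13.5 for the MTA assay; SAM Ki to MTA Ki ratio also reported.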

HAP1 MTAP-intact = assay: SDMA in-cell western assay, HAP1 MTAP-intact cell line; format: cell-based; conditions: Homo sapiens
Method in brief: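 Cells from two matched HAP1 lines, MTAP-null and MTAP-expressing at endogenous levels, are treated with compound. SDMA is then quantified by in-cell western and an IC50 is calculated for each line.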

HAP1 MTAP-deleted = assay: SDMA in-cell western assay, HAP1 MTAP-deleted cell line; format: cell-based; conditions: for IC50: Homo sapiens, HAP1 MTAP-deleted cell line; for MTAP Intact/Deleted Ratio: IC50 ratio HAP1 MTAP-intact / HAP1 MTAP-deleted
Method in brief: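 MTAP-null HAP1 cells, the deleted member of an isogenic pair with endogenously MTAP-expressing HAP1, are treated with compound. SDMA is then quantified by in-cell western and an IC50 is calculated.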

[4] = ratio between the Ki in the presence of SAM and the Ki in the presence of MTA
[5] = ratio between Ki in the presence of SAM and Ki in the presence of MTA

T1 sequence (O14744 whole entry): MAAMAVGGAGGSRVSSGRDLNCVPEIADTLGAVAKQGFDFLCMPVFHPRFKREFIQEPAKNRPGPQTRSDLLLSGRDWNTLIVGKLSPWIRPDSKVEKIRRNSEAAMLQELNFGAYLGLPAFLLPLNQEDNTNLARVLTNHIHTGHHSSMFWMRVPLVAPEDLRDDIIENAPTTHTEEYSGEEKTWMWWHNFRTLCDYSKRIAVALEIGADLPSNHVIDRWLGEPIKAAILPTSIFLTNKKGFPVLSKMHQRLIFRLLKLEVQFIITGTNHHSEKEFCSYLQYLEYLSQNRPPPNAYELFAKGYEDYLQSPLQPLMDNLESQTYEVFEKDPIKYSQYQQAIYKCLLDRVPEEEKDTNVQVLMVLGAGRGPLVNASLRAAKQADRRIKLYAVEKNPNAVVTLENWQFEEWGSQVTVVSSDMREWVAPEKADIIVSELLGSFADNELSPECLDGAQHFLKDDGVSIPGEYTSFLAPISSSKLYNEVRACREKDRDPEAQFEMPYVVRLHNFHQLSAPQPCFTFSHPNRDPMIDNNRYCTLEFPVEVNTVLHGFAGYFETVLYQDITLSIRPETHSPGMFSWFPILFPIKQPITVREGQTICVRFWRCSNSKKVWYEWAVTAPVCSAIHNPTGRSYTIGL
T1 sequence (Q9BQA1 whole entry partner): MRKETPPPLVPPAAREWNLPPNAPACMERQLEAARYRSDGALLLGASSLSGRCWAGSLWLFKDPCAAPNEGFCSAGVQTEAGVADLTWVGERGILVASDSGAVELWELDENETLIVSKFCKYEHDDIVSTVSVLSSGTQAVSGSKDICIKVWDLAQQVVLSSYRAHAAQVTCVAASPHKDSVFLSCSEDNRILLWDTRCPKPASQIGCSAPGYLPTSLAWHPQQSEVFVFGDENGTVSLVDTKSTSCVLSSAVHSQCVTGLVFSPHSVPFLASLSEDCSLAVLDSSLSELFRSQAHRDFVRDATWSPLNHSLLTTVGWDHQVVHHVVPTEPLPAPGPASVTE

SMILES	IC50 (PRMT5 [1])	IC50 (PRMT5 [2])	IC50 (PRMT5 [3])	SAM/MTA Ratio (PRMT5 [3]; [4])	IC50 (HAP1 MTAP-intact)	IC50 (HAP1 MTAP-deleted)	MTAP Intact/Deleted Ratio (HAP1 MTAP-deleted)	IC50 (PRMT5 [2]; read-out: No Co-factor IC50)	SAM/MTA Ratio (PRMT5 [3]; [5])
O=C(NC[C@H](O)CN1CCc2c(ccc(OCc3cnco3)c2Cl)C1)c1ccnc(N[C@H]2CC[C@H](C(F)(F)F)CC2)c1 [Compound 483, N—((S)-3-(5-chloro-6-(oxazol-5-ylmethoxy)-3N-dihydroisoquinolin-2(1H)-yl)-2-hydroxypropyl)-2-(((1RNS)-4-(trifluoromethyl)cyclohexy)amino)isonicotinamide]	0.5 to 5 µM	≥ 5 µM	0.05 to 0.5 µM	A (a Ki ratio greater than or equal to 10 fold between the Ki in the presence of SAM and the Ki in the presence of MTA)	≥ 10 µM	1 to 10 µM	C* (an IC50 ratio of less than 3 fold between the IC50 in the HAP1 MTAP-intact cell line and the HAP1 MTAP-deleted cell line)		
CC(=O)N1CCC(Nc2cc(C(=O)NC[C@H](O)CN3CCc4c(ccc(OCc5conc5C)c4Cl)C3)ncn2)CC1 [Compound 251, (S)-6-((1-acetylpiperidin-4-yl)amino)-N-(3-(5-chloro-6-((3-methylisoxazol-4-yl)methoxy)-3N-dihydroisoquinolin-2(1H)-yl)-2-hydroxypropyl)pyrimidine-4-carboxamide]	0.5 to 5 µM		0.5 to 5 µM		≥ 10 µM	≥ 10 µM	C* (an IC50 ratio of less than 3 fold between the IC50 in the HAP1 MTAP-intact cell line and the HAP1 MTAP-deleted cell line)	≥ 5 µM	
CN1CCN(c2nc(NC3COC3)cc(C(=O)NC[C@H](O)CN3CCc4c(ccc(OCc5cnco5)c4Cl)C3)n2)CC1 [Compound 285, (S)—N-(3-(5-chloro-6-(oxazol-5-ylmethoxy)-3,4-dihydroisoquinolin-2(1H)-yl)-2-hydroxypropyl)-2-(4-methylpiperazin-1-yl)-6-(oxetan-3-ylamino)pyrimidine-4-carboxamide]	0.05 to 0.5 µM		0.05 to 0.5 µM		≥ 10 µM	1 to 10 µM	C* (an IC50 ratio of less than 3 fold between the IC50 in the HAP1 MTAP-intact cell line and the HAP1 MTAP-deleted cell line)	0.5 to 5 µM	A (a Ki ratio greater than or equal to 10 fold between the Ki in the presence of SAM and the Ki in the presence of MTA)
CC(C)Cc1cc(C(=O)NC[C@H](O)CN2CCc3cc(OCc4cnco4)ccc3C2)cc(NC2CCC2)n1 [Compound 307, (S)-2-(cyclobutylamino)-N-(2-hydroxy-3-(6-(oxazol-5-ylmethoxy)-3,4-dihydroisoquinolin-2(1H)-yl)propyl)-6-isobutylisonicotinamide]	0.5 to 5 µM		0.05 to 0.5 µM		1 to 10 µM	< 1 µM	C* (an IC50 ratio of less than 3 fold between the IC50 in the HAP1 MTAP-intact cell line and the HAP1 MTAP-deleted cell line)	≥ 5 µM	A (a Ki ratio greater than or equal to 10 fold between the Ki in the presence of SAM and the Ki in the presence of MTA)
O=C(NC[C@H](O)CN1CCc2cc(OCc3cnco3)ccc2C1)c1cc(NC2CCC2)ncc1Cl [Compound 284, 5-chloro-2-(cyclobutylamino)-N-[(2S)-2-hydroxy-3-[6-(oxazol-5-ylmethoxy)-3N-dihydro-1H-isoquinolin-2-yl]propyl]pyridine-4-carboxamide]	0.5 to 5 µM		0.05 to 0.5 µM		< 1 µM	< 1 µM	C* (an IC50 ratio of less than 3 fold between the IC50 in the HAP1 MTAP-intact cell line and the HAP1 MTAP-deleted cell line)	≥ 5 µM	A (a Ki ratio greater than or equal to 10 fold between the Ki in the presence of SAM and the Ki in the presence of MTA)
O=C(NC[C@H](O)CN1CCc2c(ccc(OCc3cnco3)c2I)C1)c1ccnc(NC2CCC2)c1 [Compound 258, 2-(cyclobutylamino)-N-[(2S)-2-hydroxy-3-[5-iodo-6-(oxazol-5-ylmethoxy)-3,4-dihydro-1H-isoquinolin-2-yl]propyl]pyridine-4-carboxamide]	0.5 to 5 µM		0.5 to 5 µM		≥ 10 µM	≥ 10 µM	C* (an IC50 ratio of less than 3 fold between the IC50 in the HAP1 MTAP-intact cell line and the HAP1 MTAP-deleted cell line)	≥ 5 µM	A (a Ki ratio greater than or equal to 10 fold between the Ki in the presence of SAM and the Ki in the presence of MTA)
CC(=O)N1CC[C@H](Nc2cc(C(=O)NC[C@H](O)CN3CCc4cc(OCc5ocnc5C)ccc4C3)ccn2)C[C@H]1C [Compound 644, 2-(((2R,4S)-1-acetyl-2-methylpiperidin-4-yl)amino)-N—((S)-2-hydroxy-3-(6-((4-methyloxazol-5-yl)methoxy)-3,4-dihydroisoquinolin-2(1H)-yl)propyl)isonicotinamide]	0.05 to 0.5 µM		< 0.05 µM		1 to 10 µM	< 1 µM	A* (an IC50 ratio greater than or equal to 10 fold between the IC50 in the HAP1 MTAP-intact cell line and the HAP1 MTAP-deleted cell line)	0.5 to 5 µM	A (a Ki ratio greater than or equal to 10 fold between the Ki in the presence of SAM and the Ki in the presence of MTA)
COc1ccc(C(=O)N2CCc3cc(C(=O)NC[C@H](O)CN4CCc5cc(OCc6ocnc6C)ccc5C4)ccc3C2)cc1 [Compound 498, (S)—N-(2-hydroxy-3-(6-((4-methyloxazol-5-yl)methoxy)-3,4-dihydroisoquinolin-2(1H)-yl)propyl)-2-(4-methoxybenzoyl)-1,2,3,4-tetrahydroisoquinoline-6-carboxamide]	0.05 to 0.5 µM	0.5 to 5 µM	0.05 to 0.5 µM	A (a Ki ratio greater than or equal to 10 fold between the Ki in the presence of SAM and the Ki in the presence of MTA)	1 to 10 µM	< 1 µM	B* (an IC50 ratio greater than or equal to 3 fold but lower than 10 fold between the IC50 in the HAP1 MTAP-intact cell line and the HAP1 MTAP-deleted cell line)		
CCCN(C)c1cc(C(=O)NC[C@H](O)CN2CCc3c(ccc(OCc4ocnc4C)c3C)C2)cc(NC2CCC2)n1 [Compound 480, 2-(cyclobutylamino)-N-[(2S)-2-hydroxy-3-{5-methyl-6-[(4-methyl-1,3-oxazol-5-yl)methoxy]-1,2,3,4-tetrahydroisoquinolin-2-yl}propyl]-6-[methyl(propyl)amino]pyridine-4-carboxamide]	0.05 to 0.5 µM	≥ 5 µM	0.05 to 0.5 µM	A (a Ki ratio greater than or equal to 10 fold between the Ki in the presence of SAM and the Ki in the presence of MTA)	≥ 10 µM	≥ 10 µM	C* (an IC50 ratio of less than 3 fold between the IC50 in the HAP1 MTAP-intact cell line and the HAP1 MTAP-deleted cell line)		
CCC(=O)N1CCC(Nc2cc(C(=O)NC[C@H](O)CN3CCc4c(ccc(OCc5cnco5)c4C)C3)ccn2)CC1 [Compound 496, (S)—N-(2-hydroxy-3-(5-methyl-6-(oxazol-5-ylmethoxy)-3N-dihydroisoquinolin-2(1H)-yl)propyl)-2-((1-propionylpiperidin-4-yl)amino)isonicotinamide]	0.05 to 0.5 µM	0.5 to 5 µM	0.05 to 0.5 µM	A (a Ki ratio greater than or equal to 10 fold between the Ki in the presence of SAM and the Ki in the presence of MTA)	≥ 10 µM	1 to 10 µM	B* (an IC50 ratio greater than or equal to 3 fold but lower than 10 fold between the IC50 in the HAP1 MTAP-intact cell line and the HAP1 MTAP-deleted cell line)		

— US11986471B2, “Compounds and methods of use” (Tango Therapeutics, Inc., priority 2018, dated 2024)
